Like-named read-outs stand apart in the source and are kept apart here.
Experiments:
[1] = system: passive cutaneous anaphylaxis (PCA); assay: Activity of suppressing passive cutaneous anaphylaxis (PCA); type: in vivo, Male Wistar rats; conditions: Rattus norvegicus, po, 1 h, 10 mg/kg-po, 1 hour before antigen challenge; read-out: % suppression of rat PCA
Method: Test compounds were examined on their antiallergic activities. […] After 48 hours, 1.0 ml of 0.5 % Evans Blue saline solution containing DNP.BSA (1 mg in protein) was injected through the tail vein to induce allergic reaction. After 30 minutes, the rats were sacrificed by bleeding and the skin of back where dye was leaked out was flayed and put it into 20 ml test tube with ground stopper. Thereto was added 1.0 ml of 1N KOH aqueous solution and then it was allowed to stand at 37° C. in incubator overnight for lysing. To this solution was added 8.3 ml of a mixture of acetone and 0.6N phosphoric acid (13:5) and the mixture was mixed well and then was filtered to remove the insoluble materials.
The test compounds were administered orally 1 hour before the antigen challenge. Suppression rate was expressed by percentage to the value in control where 0.5% aqueous methylcellulose solution was orally administered.

[2] = system: extracted ileum (histamine contraction); assay: Antihistaminic activity: suppression of histamine-induced contraction of extracted ileum; design: species or system Female Hartley guinea pig; conditions: histamine 3×10^-7 M; guinea pig ileum; 50% suppression of contraction; read-out: anti-His in extracted ileum EC50
Method: Female Hartley guinea pig (weighing 500 to 650 g) were sacrificed and the ileum (length of about 10 to 25 cm) was extracted from the ileocecum to prepare a specimen (length of 3 cm). […] After allowing to stand for 60 minutes to make the specimen stable, a histamine (3×10^-7 M) was applied to the specimen at single application. Contraction of the specimen was determined and recorded using isotonic transducer. After repeating application of a histamine to make the contraction constant, a diluted solution of the test compound was applied. Three minutes after the application, a histamine was then added and an activity of suppressing contraction was examined.

male ICR mice = assay: Toxicity Test (mouse acute toxicity, minimum lethal dose); type: in vivo; conditions: po, observed for 24 hours, head prints (10 mg/kg-po)
Description: The test compounds were orally administered to male ICR mice (weighing to 30 g) after fasting overnight. […] The results were expressed by minimum lethal dose. Toxicity of any compounds of the present invention were weaker than that of ketotifen which was a reference compound.

[3] = system: mouse biphasic allergic dermal reaction; assay: Mouse Biphasic Allergic Dermal Reaction; type: in vivo, Female Balb/c mice; conditions: for inhibition in vivo at 0.1 mg/kg / inhibition in vivo at 1 mg/kg: Mus musculus, oral
Method: Female Balb/c mice (weighing 18 to 25 g) were subjected to passive sensitization by intravenous administration of 1 ml of anti-DNP monoclonal IgE antibody showing 1:1024 of antibody titer. 24 hours after the sensitization, 25 μl of 0.15% dinitrofluorobenzene (DNFB) were applied to both sides of right and left auricles of mouse for inducing allergic reactions. Thickness of auricles were measured using Dial Thickness Gauge before the challenge with DNFB, and 1 and 24 hours after the challenge. And then, increase in thickness of auricles at 1 hour after the challenge (edema caused by immediate allergic reaction) and that at 24 hours after the challenge (edema caused by late allergic reaction) were calculated against the thickness of auricles before the challenge with DNFB, respectively.
Suppression rate was expressed by relative ratio (%) to the value in control in which a solvent was administered.
Test compounds, diphenhydramine which is a existing classical antihistamic drug, amlexanox which is an antiallergic drug and dexamethasone which is a steroidal drug were administered orally (partly intraperitoneally) once before antigen challenge.
The above test was performed by using a mouse biphasic allergic dermal reaction model which was a new model [see, Sakurai T, Inagaki, N. and Nagai, H Life Sci., 54, PL291-295 (1994)]. In this model, the immediate allergic reaction was induced by mediator release from mast cell at 1 hour after the challenge, and the late allergic reaction with inflammatory cells such as eosinophil (edema after 24 hours) was induced after 24 hours from the challenge.

[4] = 1 h, read-out: immediate edema (1 hr) suppression (%)
[5] = 24 h, read-out: late edema (24 hr) suppression (%)

Structure (SMILES): O=S(=O)(CCCCCCN1CCN(C(c2ccccc2)c2ccc(Cl)cc2)CC1)NC1CCCCC1 (centres unmarked) [Example 143]
- inhibition in vivo at 10 mg/kg [1]: 87.8%
- EC50 [2]: 2800 nM
- mouse acute toxicity (lethal dose) (male ICR mice): > 500 mg/kg
- inhibition in vivo at 0.1 mg/kg [3, 4]: 24%
- inhibition in vivo at 1 mg/kg [3, 4]: 40%
- inhibition in vivo at 0.1 mg/kg [3, 5]: 4%
- inhibition in vivo at 1 mg/kg [3, 5]: 28%
- suppression of the late allergic reaction (in words) ([3]; edema after 24 hours): showed strong activity of suppressing the late allergic reaction

— patent US5716950A, “Diazacycloalkanealkylsulfonamide derivatives” (Nippon Shoji Kabushiki Kaisha, priority 1994, dated 1998)
